According to US6784184B2, “5-(arylsulfonyl)-,5-(arylsulfinyl), and 5-(arylsulfanyl)-thiazolidine-2,4-diones useful for inhibition of farnesyl-protein transferase” (Wyeth Holdings Corporation, priority 2001, dated 2004):

Key:
FPTase (K-Ras substrate) = FPTase (K-Ras substrate) (UniProt P29702+P49355); assay: in vitro FTase Inhibition Assay, K-Ras as substrate for farnesylation; type: biochemical; settings: K-Ras used as substrate for farnesylation
Procedure: (§1) The ability of the compounds of this invention to inhibit FPTase was evaluated in the standard pharmacological in vitro test procedures described below.
(§2) Methods—1. […] 2. Solution #1 is added to FPTase reaction in a volume of […]. 3. Standard reaction mix, […], contains 50 mM Tris (7.5), […], 3 mM MgCl2, 20 mM KCl, 5 mM DTT, 0.2% octyl-B-glucoside, 1% DMSO, […], 10 ng FPTase, and various concentrations of FPTase inhibitors. 4. Incubate for 30-90 min at […] 5. Stop reactions with TCA/SDS (6%/2%), hold at 4° C. for 45-60 min. 6. Filter by manifold or 96 well plate, wash filter 3-5× with TCA (6%). 7. Add scintillant to filters, measure ^3H-FPP incorporation into Ras protein.
(§3) (cpm from precipitated Ras with test compounds)−(background cpm)×100=% inhibition.
(§4) (cpm from precipitated Ras without test compounds)−(background cpm)

FPTase (H-Ras substrate) = FPTase (H-Ras substrate) (UniProt P29702+P49355); assay: in vitro FTase Inhibition Assay, H-Ras as substrate for farnesylation; type: biochemical; settings: H-Ras used as substrate for farnesylation
Procedure: as §1, §2, §3, §4

Row | Structure (SMILES) | IC50 (FPTase (K-Ras substrate)) [nM] | IC50 (FPTase (H-Ras substrate)) [nM]
1 | COc1ccc(S(=O)(=O)C2(CCCC#Cc3cc(NC(=O)OCc4ccccc4)ccc3C)SC(=O)NC2=O)cc1 (centres unmarked) [Example 175, (3-{5-[5-(4-Methoxybenzenesulfonyl)-2,4-dioxothiazolidin-5-yl]pent-1-ynyl}-4-methylphenyl)carbamic Acid Benzyl Ester] | 53 to 520 | 10 to 32
2 | O=C1NC(=O)C(CCCC#Cc2ccc(-n3cccc3)cc2)(S(=O)(=O)c2ccc(I)cc2)S1 (centres unmarked) [Example 162, 5-(4-Iodo-benzenesulfonyl)-5-[5-(4-pyrrol-1-yl-phenyl)pent-4-ynyl]-thiazolidine-2,4-dione] | 4000 | 1210
3 | COc1ccc(S(=O)(=O)C2(CCCC#Cc3cc(NC(=O)OCc4ccccc4)ccc3C)SC(=O)N(C(=O)OCc3ccccc3)C2=O)cc1 (centres unmarked) [Example 226, Benzyl 5-[5-(5-{[(benzyloxy)carbonyl]-amino}-2-methylphenyl)pent-4-ynyl]-5-[(4-methoxyphenyl)sulfonyl]-2,4-dioxo-1,3-thiazolidine-3-carboxylate] | 100 to 3200 | 30 to 50
4 | Cc1ccc(S(=O)(=O)C2(CC#Cc3ccc(Oc4ccccc4)cc3)SC(=O)NC2=O)cc1 (centres unmarked) [Example 170, 5-[3-(4-Phenoxyphenyl)prop-2-ynyl]-5-(toluene-4-sulfonyl)-thiazolidine-2,4-dione] | 4700 | 380
5 | COc1ccc(S(=O)(=O)C2(CC#Cc3cccnc3)SC(=O)NC2=O)cc1 (centres unmarked) [Example 167, 5-(4-Methoxybenzenesulfonyl)-5-(3-pyridin-3-ylprop-2-ynyl)-thiazolidine-2,4-dione] | – | 1500
6 | COc1ccc(S(=O)(=O)C2(CCCC#Cc3cc(NC(=O)OC(C)C)ccc3C)SC(=O)NC2=O)cc1 (centres unmarked) [Example 179, (3-{5-[5-(4-Methoxybenzenesulfonyl)-2,4-dioxothiazolidin-5-yl]pent-1-ynyl}-4-methylphenyl)carbamic Acid Isopropyl Ester] | 5 to 70 | 2 to 32
7 | CC(=O)Nc1ccc(S(=O)(=O)C2(CCCC#Cc3ccc(Cl)cc3)SC(=O)NC2=O)cc1 (centres unmarked) [Example 108, N-(4-{5-[5-(4-Chlorophenyl)pent-4-ynyl]-2,4-dioxothiazolidine-5-sulfonyl}phenyl)acetamide] | ≥ 9000 | 130 to 180
8 | CCCCOC(=O)Nc1ccc(C)c(C#CCCCC2(S(=O)(=O)c3ccc(OC)cc3)SC(=O)N(C(=O)OCCCC)C2=O)c1 (centres unmarked) [Example 231, Butyl 5-(5-{5-[(butoxycarbonyl)amino]-2-methylphenyl}pent-4-ynyl)-5-[(4-methoxy-phenyl)sulfonyl]-2,4-dioxo-1,3-thiazolidine-3-carboxylate] | 100 to 1000 | 10 to 21
9 | COc1ccc(S(=O)(=O)C2(CCCC#Cc3cc(C)ccc3C)SC(=O)NC2=O)cc1 (centres unmarked) [Example 135, 5-[5-(2,5-Dimethylphenyl)pent-4-ynyl]-5-(4-methoxybenzenesulfonyl)-thiazolidine-2,4-dione] | 1900 to 2100 | 20 to 32
10 | O=C1NC(=O)C(CCCC#Cc2ccc(Cl)cc2)(S(=O)(=O)c2ccc(Oc3ccccc3)cc2)S1 (centres unmarked) [Example 106, 5-[5-(4-Chlorophenyl)pent-4-ynyl]-5-(4-phenoxybenzenesulfonyl)-thiazolidine-2,4-dione] | 1300 to 1700 | 230 to 250
11 | COc1ccc(S(=O)(=O)C2(CCCC#Cc3cc(NC(=O)Nc4ccc(Cl)cc4)ccc3C)SC(=O)NC2=O)cc1 (centres unmarked) [Example 189, N-(4-Chlorophenyl)-N′-[3-(5-{5-[(4-methoxy-phenyl)sulfonyl]-2,4-dioxo-1,3-thiazolidin-5-yl}-1-pentynyl)-4-methylphenyl]urea] | 1200 | 100
12 | CCCCOc1ccc(S(=O)(=O)C2(CCCC#Cc3ccc(Cl)cc3)SC(=O)NC2=O)cc1 (centres unmarked) [Example 112, 5-(4-Butoxybenzenesulfonyl)-5-[5-(4-chlorophenyl)-pent-4-ynyl]-thiazolidine-2,4-dione] | 1400 to 1500 | 590 to 600
13 | Cc1ccc(S(=O)(=O)C2(CCCC#Cc3ccc(Cl)cc3)SC(=O)NC2=O)cc1 (centres unmarked) [Example 103, 5-[5-(4-Chlorophenyl)pent-4-ynyl]-5-(p-tolylsulfonyl)-thiazolidine-2,4-dione] | 900 to 10000 | 30 to 50
14 | COc1ccc(S(=O)(=O)C2(CCCC#Cc3ccc(C#N)cc3)SC(=O)NC2=O)cc1 (centres unmarked) [Example 158, 4-{5-[5-(4-Methoxybenzenesulfonyl)-2,4-dioxo-thiazolidin-5-yl]pent-1-ynyl}benzonitrile] | 3800 | 150
15 | COc1ccc(S(=O)(=O)C2(CCCC#Cc3ccc([N+](=O)[O-])cc3)SC(=O)NC2=O)cc1 (centres unmarked) [Example 121, 5-(4-Methoxybenzenesulfonyl)-5-[5-(4-nitrophenyl)pent-4-ynyl]-thiazolidine-2,4-dione] | 1600 | 120
16 | COc1ccc(S(=O)(=O)C2(CCCC#Cc3cccc(N)c3)SC(=O)NC2=O)cc1 (centres unmarked) [Example 220, 5-[5-(3-Aminophenyl)pent-4-ynyl]-5-(4-methoxybenzenesulfonyl)-thiazolidine-2,4-dione] | 3000 | 90

Row | Structure (SMILES) | IC50 (FPTase (K-Ras substrate)) [nM] | IC50 (FPTase (H-Ras substrate)) [nM]
17 | COc1ccc(S(=O)(=O)C2(CCCC#Cc3cc([N+](=O)[O-])ccc3C)SC(=O)NC2=O)cc1 (centres unmarked) [Example 122, 5-(4-Methoxybenzenesulfonyl)-5-[5-(2-methyl-5-nitrophenyl)pent-4-ynyl]-thiazolidine-2,4-dione] | 230 to 1000 | 30 to 50
18 | Cc1ccc(S(=O)(=O)C2(CCC/C=C\c3ccc(Cl)cc3)SC(=O)NC2=O)cc1 (centres unmarked) [Example 217, 5-[(4Z)-5-(4-Chloro-phenyl)pent-4-enyl]-5-(toluene-4-sulfonyl)-thiazolidine-2,4-dione] | 8500 | 100
19 | COc1ccc(S(=O)(=O)C2(CCCC#Cc3ccc(NC(=O)OC(C)(C)C)cc3C)SC(=O)NC2=O)cc1 (centres unmarked) [Example 149, (4-{5-[5-(4-Methoxybenzenesulfonyl)-2,4-dioxo-thiazolidin-5-yl]pent-1-ynyl}-3-methylphenyl)carbamic Acid tert-Butyl Ester] | 1000 to 4900 | 450 to 500
20 | COc1ccc(S(=O)(=O)C2(CCCC#Cc3ccc(Cl)cc3Cl)SC(=O)NC2=O)cc1 (centres unmarked) [Example 117, 5-[5-(2,4-Dichlorophenyl)pent-4-ynyl]-5-(4-methoxybenzenesulfonyl)-thiazolidine-2,4-dione] | 510 to 1000 | 20 to 30
21 | COc1ccc(S(=O)(=O)C2(CCCC#Cc3cccs3)SC(=O)NC2=O)cc1 (centres unmarked) [Example 166, 5-(4-Methoxybenzenesulfonyl)-5-(5-thiophen-2-yl-pent-4-ynyl)-thiazolidine-2,4-dione] | 5300 | 150
22 | Cc1cc([N+](=O)[O-])ccc1C#CCCCC1(S(=O)(=O)c2ccc(Oc3ccccc3)cc2)SC(=O)NC1=O (centres unmarked) [Example 129, 5-[5-(2-Methyl-4-nitrophenyl)pent-4-ynyl]-5-(4-phenoxybenzenesulfonyl)-thiazolidine-2,4-dione] | 600 to 790 | 100
23 | Cc1cc(Br)ccc1C#CCCCC1(S(=O)(=O)c2ccc(I)cc2)SC(=O)NC1=O (centres unmarked) [Example 144, 5-[5-(4-Bromo-2-methylphenyl)pent-4-ynyl]-5-(4-iodobenzenesulfonyl)-thiazolidine-2,4-dione] | 320 to 550 | 40 to 41
24 | Cc1ccc([N+](=O)[O-])cc1C#CCCCC1(S(=O)(=O)c2ccc(I)cc2)SC(=O)NC1=O (centres unmarked) [Example 125, 5-(4-Iodobenzenesulfonyl)-5-[5-(2-methyl-5-nitrophenyl)pent-4-ynyl]-thiazolidine-2,4-dione] | 400 | 30
25 | COc1ccc(S(=O)(=O)C2(CCCC#Cc3ccccc3Cl)SC(=O)NC2=O)cc1 (centres unmarked) [Example 101, 5-[5-(2-Chlorophenyl)pent-4-ynyl]-5-(4-methoxybenzenesulfonyl)-thiazolidine-2,4-dione] | 110 to 1000 | 10 to 30
26 | COc1ccc(S(=O)(=O)C2(CCCC#Cc3ccc(NC(=O)OC(C)(C)C)cc3C(F)(F)F)SC(=O)NC2=O)cc1 (centres unmarked) [Example 151, (4-{5-[5-(4-Methoxybenzenesulfonyl)-2,4-dioxothiazolidin-5-yl]pent-1-ynyl}-3-trifluoromethylphenyl)-carbamic Acid tert-Butyl Ester] | 210 to 1000 | 530 to 700
27 | COc1ccc(S(=O)(=O)C2(CCCC#Cc3ccc(Cl)cc3)SC(=O)N(CCCn3ccnc3)C2=O)cc1 (centres unmarked) [Example 233, 5-[5-(4-Chlorophenyl)pent-4-ynyl]-3-(3-imidazol-1-yl-propyl)-5-(4-methoxybenzenesulfonyl)-thiazolidine-2,4-dione] | – | 2900
28 | O=C1NC(=O)C(CCCC#Cc2ccc(-n3cccc3)cc2)(S(=O)(=O)c2ccc(OC(F)(F)F)cc2)S1 (centres unmarked) [Example 163, 5-[5-(4-Pyrrol-1-ylphenyl)pent-4-ynyl]-5-(4-trifluoromethoxybenzenesulfonyl)-thiazolidine-2,4-dione] | – | 1300
29 | COc1ccc(S(=O)(=O)C2(CCCC#Cc3ccc(-n4cccc4)cc3)SC(=O)NC2=O)cc1 (centres unmarked) [Example 161, 5-(4-Methoxybenzenesulfonyl)-5-[5-(4-pyrrol-1-yl-phenyl)pent-4-ynyl]-thiazolidine-2,4-dione] | – | 900
30 | Cc1ccc(S(=O)(=O)C2(CC#Cc3cccs3)SC(=O)NC2=O)cc1 (centres unmarked) [Example 168, 5-(3-Thiophen-2-yl-prop-2-ynyl)-5-(toluene-4-sulfonyl)-thiazolidine-2,4-dione] | – | 280
31 | O=C1NC(=O)C(CCCC#Cc2ccc(Cl)cc2)(Sc2ccc(F)cc2)S1 (centres unmarked) [Example 96, 5-[5-(4-Chlorophenyl)pent-4-ynyl]-5-(4-fluorophenylsulfanyl)-thiazolidine-2,4-dione] | – | 700
